Measured values from ChEMBL document CHEMBL6120971 (J Med Chem, 2024).
Activity calls are given as the source filed them. The rule behind the calls is not given here.

Experiments:
[1] = target: T1, Protein cereblon/Hepatocyte growth factor receptor (Homo sapiens, UniProt P08581+Q96SW2); test: PROTAC activity at CRBN/c-MET in human MKN-45 cells assessed as induction of c-MET degradation at 6.25 nM incubated for 24 hrs by Western blot analysis; format: cell-based
[2] = target: T1, Protein cereblon/Hepatocyte growth factor receptor; test: PROTAC activity at CRBN/c-MET in human PC-9 cells assessed as induction of c-MET degradation at 3.125 to 50 nM incubated for 24 hrs by Western blot analysis; format: cell-based; details: dose 3.125-50 nM
Hs746T = test: Inhibition of c-MET/Akt signaling pathway activation in human Hs746T cells at 12.5 to 200 nM incubated for 24 hrs by Western blot analysis; format: cell-based; details: dose 12.5-200 nM
PC-9 = test: Inhibition of c-MET/Akt signaling pathway activation in human PC-9 cells at 3.125 to 50 nM incubated for 24 hrs by Western blot analysis; format: cell-based; details: dose 3.125-50 nM
[3] = target: T1, Protein cereblon/Hepatocyte growth factor receptor; test: PROTAC activity at CRBN/c-MET in human NGEC cells assessed as induction of c-MET degradation upto 50 nM incubated for 24 hrs by Western blot analysis; format: cell-based; details: NGEC cell
[4] = target: T1, Protein cereblon/Hepatocyte growth factor receptor; test: PROTAC activity at CRBN/c-MET in human MKN-45 cells assessed as induction of c-MET degradation at 100 nM preincubated with capmatinib for 2 hrs followed by compound addition and measured after 24 hrs by Western blot analysis; format: cell-based
[5] = Cmax in male Sprague-Dawley rat at 10 mg/kg, iv measured after 24 hrs by LC-MS/MS analysis; format: ADME, organism-based; details: in vivo
MKN-45 = test: Downregulation of SLC7A1 protein level in human MKN-45 cells at 100 nM incubated for 24 hrs by MS-based quantitative proteomics analysis; format: functional, cell-based
[6] = target: Protein cereblon/Importin subunit alpha-1 (Homo sapiens) (UniProt P52292+Q96SW2); test: PROTAC activity at CRBN/KPNA2 in human MKN-45 cells assessed as induction of c-MET degradation at 6.25 to 100 nM incubated for 24 hrs by Western blot analysis; format: cell-based; details: dose 6.25-100 nM
[7] = Toxicity in BALB/c nude mouse xenografted with human MKN-45 cells assessed as body weight loss at 10 to 40 mg/kg, po administered once daily for 21 days; format: organism-based; details: in vivo, 504 h, dose 10-40 mg/kg, time 21 day
[8] = Toxicity in BALB/c nude mouse xenografted with human MKN-45 cells assessed as effect on lung morphology at 10 to 40 mg/kg, po administered once daily for 21 days by H and E staining based analysis; format: organism-based; details: in vivo, 504 h, dose 10-40 mg/kg, time 21 day
[9] = Toxicity in BALB/c nude mouse xenografted with human MKN-45 cells assessed as effect on liver morphology at 10 to 40 mg/kg, po administered once daily for 21 days by H and E staining based analysis; format: organism-based; details: in vivo, 504 h, dose 10-40 mg/kg, time 21 day
[10] = Toxicity in BALB/c nude mouse xenografted with human MKN-45 cells assessed as effect on spleen morphology at 10 to 40 mg/kg, po administered once daily for 21 days by H and E staining based analysis; format: organism-based; details: in vivo, 504 h, dose 10-40 mg/kg, time 21 day
[11] = Toxicity in BALB/c nude mouse xenografted with human MKN-45 cells assessed as effect on kidney morphology at 10 to 40 mg/kg, po administered once daily for 21 days by H and E staining based analysis; format: organism-based; details: in vivo, 504 h, dose 10-40 mg/kg, time 21 day
Mus musculus = test: Downregulation of c-MET protein level in BALB/c nude mouse liver xenografted with human MKN-45 cells at 10 mg/kg, po measured after 48 hrs by Western blot analysis; format: functional, organism-based
[12] = Half-life in male Sprague-Dawley rat at 10 mg/kg, po measured after 24 hrs by LC-MS/MS analysis; format: ADME, organism-based; details: in vivo
[13] = Tmax in male Sprague-Dawley rat at 10 mg/kg, po measured after 24 hrs by LC-MS/MS analysis; format: ADME, organism-based; details: in vivo

T1 sequence (P08581 25-1390 limits assumed): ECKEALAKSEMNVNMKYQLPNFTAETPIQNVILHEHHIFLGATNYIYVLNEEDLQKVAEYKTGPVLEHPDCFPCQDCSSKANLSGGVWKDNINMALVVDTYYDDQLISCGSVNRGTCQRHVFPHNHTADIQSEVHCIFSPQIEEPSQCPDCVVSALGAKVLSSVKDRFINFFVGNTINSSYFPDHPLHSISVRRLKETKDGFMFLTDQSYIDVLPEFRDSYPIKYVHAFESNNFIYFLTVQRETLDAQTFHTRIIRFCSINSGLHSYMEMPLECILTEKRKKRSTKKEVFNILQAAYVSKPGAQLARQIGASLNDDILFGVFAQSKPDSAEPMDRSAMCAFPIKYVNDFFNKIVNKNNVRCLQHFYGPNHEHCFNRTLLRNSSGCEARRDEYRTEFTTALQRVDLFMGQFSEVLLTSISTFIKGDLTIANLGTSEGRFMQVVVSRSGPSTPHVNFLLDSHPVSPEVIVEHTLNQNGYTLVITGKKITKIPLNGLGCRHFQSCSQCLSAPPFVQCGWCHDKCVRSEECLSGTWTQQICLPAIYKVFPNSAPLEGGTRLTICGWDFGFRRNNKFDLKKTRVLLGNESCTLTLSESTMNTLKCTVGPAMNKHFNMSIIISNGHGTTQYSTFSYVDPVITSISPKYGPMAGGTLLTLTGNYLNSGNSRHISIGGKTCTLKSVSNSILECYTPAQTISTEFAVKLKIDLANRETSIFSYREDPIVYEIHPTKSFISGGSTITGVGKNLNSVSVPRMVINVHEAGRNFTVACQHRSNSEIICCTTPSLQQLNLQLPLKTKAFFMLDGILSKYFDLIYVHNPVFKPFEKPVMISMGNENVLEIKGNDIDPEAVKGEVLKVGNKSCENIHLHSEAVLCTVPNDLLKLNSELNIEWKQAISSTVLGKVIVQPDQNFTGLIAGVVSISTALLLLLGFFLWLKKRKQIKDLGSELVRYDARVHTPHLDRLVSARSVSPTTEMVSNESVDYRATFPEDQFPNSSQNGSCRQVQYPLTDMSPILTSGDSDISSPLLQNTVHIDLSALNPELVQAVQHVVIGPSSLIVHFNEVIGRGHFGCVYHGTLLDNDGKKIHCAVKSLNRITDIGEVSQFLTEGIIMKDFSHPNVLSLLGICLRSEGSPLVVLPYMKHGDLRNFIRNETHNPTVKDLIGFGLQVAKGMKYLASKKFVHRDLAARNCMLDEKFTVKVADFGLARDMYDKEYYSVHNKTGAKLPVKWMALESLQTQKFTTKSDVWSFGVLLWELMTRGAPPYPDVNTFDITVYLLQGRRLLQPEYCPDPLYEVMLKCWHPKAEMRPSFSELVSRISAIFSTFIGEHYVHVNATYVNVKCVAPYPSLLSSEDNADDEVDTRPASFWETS
T1 sequence (Q96SW2 whole entry partner): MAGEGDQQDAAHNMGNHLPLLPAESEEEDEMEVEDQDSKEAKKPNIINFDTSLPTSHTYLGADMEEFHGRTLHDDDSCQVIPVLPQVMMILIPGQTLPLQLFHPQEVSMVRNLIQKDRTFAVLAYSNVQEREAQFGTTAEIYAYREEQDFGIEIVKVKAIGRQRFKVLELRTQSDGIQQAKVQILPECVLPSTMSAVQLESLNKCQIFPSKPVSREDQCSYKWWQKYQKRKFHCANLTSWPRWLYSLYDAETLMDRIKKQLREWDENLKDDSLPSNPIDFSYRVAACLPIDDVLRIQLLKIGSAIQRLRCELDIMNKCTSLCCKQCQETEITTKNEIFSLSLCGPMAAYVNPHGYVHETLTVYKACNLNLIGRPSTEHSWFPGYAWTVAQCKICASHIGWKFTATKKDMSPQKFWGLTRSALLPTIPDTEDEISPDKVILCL

With O=C1CCC(N2C(=O)c3ccc(N4CCN(CC5CCN(C(=O)c6ccc(-c7cnc8ncc(Cc9ccc%10ncccc%10c9)n8n7)cc6F)CC5)CC4)cc3C2=O)C(=O)N1 (configuration not stated) the Activity [1] was “Active”, the Activity [2] was “Active” and the inhibition (Hs746T) was “Active”. The inhibition (PC-9) was “Active”, the Activity [3] was “Weak_effect” and the Activity [4] was “inactive”. For the same compound, the Cmax [5] was 1.65 µg/mL, the Activity (MKN-45) was “Active” and the Activity [6] was “inactive”. The Activity [7] was “Non-toxic”, the Activity [8] was “Non-toxic” and the Activity [9] was “Non-toxic”. For the same compound, the Activity [10] was “Non-toxic”, the Activity [11] was “Non-toxic” and the Activity (Mus musculus) was “Not active; Favorable Tissue Specificity Of Compound Observed”. The half-life [12] was 4.13 h and the Tmax [13] was 2 h.
